# Patent publication US20060281763A1, “Carboxamide inhibitors of TGFbeta” (priority 2005, published 2006)
# Biological target: T1, TGFβ R1 (Homo sapiens, UniProt P36897)
# T1 sequence (P36897 34-503): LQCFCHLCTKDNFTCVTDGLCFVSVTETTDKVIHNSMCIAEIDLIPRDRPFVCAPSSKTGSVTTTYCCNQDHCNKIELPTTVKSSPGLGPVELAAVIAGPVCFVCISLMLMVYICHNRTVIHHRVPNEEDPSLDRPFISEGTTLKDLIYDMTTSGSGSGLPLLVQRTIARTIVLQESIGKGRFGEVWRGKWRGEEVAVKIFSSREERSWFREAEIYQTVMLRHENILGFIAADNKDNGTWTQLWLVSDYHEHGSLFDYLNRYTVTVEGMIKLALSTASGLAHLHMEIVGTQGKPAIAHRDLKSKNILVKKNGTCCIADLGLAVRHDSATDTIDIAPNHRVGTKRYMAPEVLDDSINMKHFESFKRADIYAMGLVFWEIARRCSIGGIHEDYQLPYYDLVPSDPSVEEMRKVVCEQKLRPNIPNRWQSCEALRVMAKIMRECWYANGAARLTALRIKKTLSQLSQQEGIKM
# Assay: TGFβ R1 autophosphorylation protocol (33P-ATP, phosphocellulose filter plate)
# Assay type: biochemical
# Details: 10 uM ATP, 170 nM TGFβ R1, 20 minutes at room temperature, read-out: IC50 for Kinase Inhibition
# Outline: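 Incorporation of 33P from γ-33P-ATP (10 uM ATP final) into the kinase itself (170 nM) measured by phosphocellulose capture and scintillation counting. Incubation 20 min at room temperature in 20 mM MOPS pH 7 with […]; final DMSO ≤1%.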
row,SMILES,IC50
1,"CC(C)NCCNC(=O)c1cnccc1Nc1nc(-c2cc(Cl)ccc2F)ncc1N1CCCC1 [Compound 23, 4-[2-(5-Chloro-2-fluoro-phenyl)-5-pyrrolidin-1-yl-pyrimidin-4-ylamino]-N-(2-isopropylamino-ethyl)-nicotinamide]",200 nM
2,"COc1cnc(-c2cc(Cl)ccc2F)nc1Nc1ccncc1C(=O)N[C@@H]1C[C@H](C(=O)N(C)C)N(C(=O)OC(C)(C)C)C1 [Compound 106, 4-({4-[2-(5-Chloro-2-fluoro-phenyl)-5-methoxy-pyrimidin-4-ylamino]-pyridine-3-carbonyl}-amino)-2-dimethyl carbamoyl-pyrrolidine-1-carboxylic acid tert-butyl ester]",4810 nM
3,"COc1cnc(-c2cc(Cl)ccc2F)nc1Nc1ccncc1C(=O)NCCCNC(C)=O [Compound 94, N-(3-Acetylamino-propyl)-4-[2-(5-chloro-2-fluoro-phenyl)-5-methoxy-pyrimidin-4-ylamino]-nicotinamide]",1340 nM
4,"CC(C)c1cnc(-c2cc(Cl)ccc2F)nc1Nc1ccncc1C(=O)N[C@H](C(N)=O)[C@@H](C)O [Compound 85, N-(1-Carbamoyl-2-hydroxy-propyl)-4-[2-(5-chloro-2-fluoro-phenyl)-5-isopropyl-pyrimidin-4-ylamino]-nicotinamide]",3960 nM
5,"CC(C)c1cnc(-c2cc(Cl)ccc2F)nc1Nc1ccncc1C(=O)NCC(C)(C)O [Compound 52, 4-[2-(5-Chloro-2-fluoro-phenyl)-5-isopropyl-pyrimidin-4-ylamino]-N-(2-hydroxy-2-methyl-propyl)-nicotinamide]",90 nM
6,"COc1cnc(-c2cc(Cl)ccc2F)nc1Nc1ccncc1C(=O)NCCNc1ccccc1 [Compound 71, 4-[2-(5-Chloro-2-fluoro-phenyl)-5-methoxy-pyrimidin-4-ylamino]-N-(2-phenylamino-ethyl)-nicotinamide]",760 nM
7,"COc1cnc(-c2cc(Cl)ccc2F)nc1Nc1ccncc1C(=O)NCCNC(=O)CC1O[C@H](CO)[C@@H](O)[C@H](O)[C@H]1O (some centres unmarked) [Compound 147, 4-[2-(5-Chloro-2-fluoro-phenyl)-5-methoxy-pyrimidin-4-ylamino]-N-{2-[2-(3,4,5-trihydroxy-6-hydroxymethyl-tetrahydro-pyran-2-yl)-acatylamino]-ethyl}-nicotinamide]",125 nM
8,"COc1ccc(NC(=O)NCCNC(=O)c2cnccc2Nc2nc(-c3cc(Cl)ccc3F)ncc2OC)cc1 [Compound 79, 4-[2-(5-Chloro-2-fluoro-phenyl)-5-methoxy-pyrimidin-4-ylamino]-N-{2-[3-(4-methoxy-phenyl)-ureido]-ethyl}-nicotinamide]",350 nM
9,"COc1cnc(-c2cc(Cl)ccc2F)nc1Nc1ccncc1C(=O)NCC(C)C(=O)O (centres unmarked) [Compound 56, 3-({4-[2-(5-Chloro-2-fluoro-phenyl)-5-methoxy-pyrimidin-4-ylamino)-pyridine-3-carbonyl)-amino)-2-methyl-propionic acid]",1200 nM
10,"COc1cnc(-c2cc(Cl)ccc2F)nc1Nc1ccncc1C(=O)NCCCN1CCCCC1C (centres unmarked) [Compound 12, 4-[2-(5-Chloro-2-fluoro-phenyl)-5-methoxy-pyrimidin-4-ylamino]-N-[3-(2-methyl-piperidin-1-yl)-propyl]-nicotinamide]",60 nM
11,"COc1cnc(-c2cc(Cl)ccc2F)nc1Nc1ccncc1C(=O)NCCCN1CCOCC1 [Compound 9, 4-[2-(5-Chloro-2-fluoro-phenyl)-5-methoxy-pyrimidin-4-ylamino]-N-(3-morpholin-4-yl-propyl)-nicotinamide]",30 nM
12,"COc1cnc(-c2cc(Cl)ccc2F)nc1Nc1ccncc1C(=O)NCCNC(=O)COC1O[C@H](COC(C)=O)[C@@H](OC(C)=O)[C@H](OC(C)=O)[C@H]1OC(C)=O (some centres unmarked) [Compound 143, Acetic acid 3,4,5-triacetoxy-6-{[2-({4-[2-(5-chloro-2-fluoro-phenyl)-5-methoxy-pyrimidin-4-ylamino]-pyridine-3-carbonyl}-amino)-ethylcarbamoyl]-methoxy}-tetrahydro-pyran-2-ylmethyl ester]",183 nM
13,"COc1cnc(-c2cc(Cl)ccc2F)nc1Nc1ccncc1C(=O)NCCCN1CC[C@@H](O)C1 [Compound 77, 4-[2-(5-Chloro-2-fluoro-phenyl)-5-methoxy-pyrimidin-4-ylamino]-N-[3-(3-hydroxy-pyrrolidin-1-yl)-propyl]-nicotinamide]",40 nM
14,"COc1cnc(-c2cc(Cl)ccc2F)nc1Nc1ccncc1C(=O)NCCCNC(=O)Nc1ccc2c(c1)OCO2 [Compound 76, N-[3-(3-Benzo[1,3]dioxol-5-yl-ureido)-propyl]-4-[2-(5-chloro-2-fluoro-phenyl)-5-methoxy-pyrimidin-4-ylamino]-nicotinamide]",320 nM
15,"COc1cnc(-c2cc(Cl)ccc2F)nc1Nc1ccncc1C(=O)NCCCN1CCN(C)CC1 [Compound 38, 4-[2-(5-Chloro-2-fluoro-phenyl)-5-methoxy-pyrimidin-4-ylamino]-N-[3-(4-methyl-piperazin-1-yl)-propyl]-nicotinamide]",540 nM
16,"COc1cnc(-c2cc(Cl)ccc2F)nc1Nc1ccncc1C(=O)NCCCNCC(F)(F)C(F)(F)F [Compound 101, 4-[2-(5-Chloro-2-fluoro-phenyl)-5-methoxy-pyrimidin-4-ylamino]-N-[3-(2,2,3,3,3-pentafluoro-propylamino)-propyl]-nicotinamide]",140 nM
17,"COc1cnc(-c2cc(Cl)ccc2F)nc1Nc1ccncc1C(=O)NCCCNCCC1O[C@H](COC(C)=O)[C@@H](OC(C)=O)[C@H](OC(C)=O)[C@H]1OC(C)=O (some centres unmarked) [Compound 97, Acetic acid 3,4,5-triacetoxy-6-{2-[3-({4-[2-(5-chloro-2-fluoro-phenyl)-5-methoxy-pyrimidin-4-ylamino]-pyridine-3-carbonyl}-amino)-propylamino]-ethyl}-tetrahydro-pyran-2-ylmethyl ester]",90 nM

# Same assay, conditions: 10 uM ATP, 170 nM TGFβ R1, room temperature 20 minutes, read-out: IC50 for Kinase Inhibition
row,SMILES,IC50
1,CC(C)c1cnc(-c2cc(Cl)ccc2F)nc1Nc1ccncc1C(=O)NCCCN1CCC[C@@H]1C(=O)N1CCCC1 [Compound 180],5 nM
2,"CN1CCN(C(=O)c2cnccc2Nc2nc(-c3cc(Cl)ccc3F)ncc2C2CCCC2)CC1 [Compound 213, {4-[2-(5-Chloro-2-fluoro-phenyl)-5-cyclopentyl-pyrimidin-4-ylamino]-pyridin-3-yl}-(4-methyl-piperazin-1-yl)-methanone]",12900 nM
3,"CC(C)c1cnc(-c2cc(Cl)ccc2F)nc1Nc1ccncc1C(=O)NC1CCN(C)CC1 [Compound 178, 4-[2-(5-Chloro-2-fluoro-phenyl)-5-isopropyl-pyrimidin-4-ylamino]-N-(1-methyl-piperidin-4-yl)-nicotinamide]",3 nM
4,"CC(C)c1cnc(-c2cc(Cl)ccc2F)nc1Nc1ccncc1C(=O)NC[C@H](C)OC(=O)[C@H](C)N [Compound 204, 2-Amino-propionic acid 2-({4-[2-(5-chloro-2-fluoro-phenyl)-5-isopropyl-pyrimidin-4-ylamino]-pyridine-3-carbonyl}-amino)-1-methyl-ethyl ester]",25 nM
5,COc1cnc(-c2cc(Cl)ccc2F)nc1Nc1ccncc1C(=O)NCCNCCOC1O[C@@H](CO)[C@H](O)[C@@H](O)[C@@H]1O (some centres unmarked) [Compound 185],9 nM
6,"CC(C)c1cnc(-c2cc(Cl)ccc2F)nc1Nc1ccncc1C(=O)NC[C@H](C)OC(=O)[C@@H](C)N [Compound 205, 2-Amino-propionic acid 2-({4-[2-(5-chloro-2-fluoro-phenyl)-5-isopropyl-pyrimidin-4-ylamino]-pyridine-3-carbonyl}-amino)-1-methyl-ethyl ester]",10 nM
